According to patent US20220249819A1, “MICRONEEDLES, AND METHODS FOR THE MANUFACTURE THEREOF” (UNIVERSITY COLLEGE CORK - NATIONAL UNIVERSITY OF IRELAND, …, priority 2019, published 2022):

Assays:
Assay type in all cases: physicochemical
[1] = Ability to form a glassy, amorphous form following heat-melting and cooling (XRD)
Procedure: As used herein, the term “meltable drug” or “meltable active pharmaceutical ingredient” refers to an active pharmaceutical ingredient that can be heat-melted to a molten form and has the following properties: • solid at 25° C.; • ability to form a glassy, amorphous form following heat-melting and cooling; and • the amorphous form having a glass transition temperature typically greater than 25° C. Examples of meltable drugs include; antifungals (for example, Itraconazole, Clotrimazole, Ketoconazole, Fluconazole, or derivatives or variants thereof), corticosteroids (for example, Estradiol, betamethasone valerate or derivatives or variants thereof), Anti-inflammatory drugs (for example, Celecoxib, Diclofenac, Sulindac, Indomethacin), Antimicrobials and Antibiotics (for example, Cefuroxime […], Chloramphenicol or derivatives or variants thereof), Cardiovascular and Antihypertensives (Carvedilol, Nifedipine or derivatives or variants thereof), Autonomic nervous system and Psychiatrics medications (Droperidol or derivatives or variants thereof), Antilipidemic and Cholesterol medications (Probucol, Simvastatin or derivatives or variants thereof), Gastrointestinal medications (Famotidine, Omeprazole or derivatives or variants thereof), Respiratory medications, Endocrine medications, Immunomodulators, Oncology drugs, Renal medications, Neurologic medications and anti-migraine (Zolmitriptan or derivatives or variants thereof). Typically, the meltable drug forms a stable amorphous form following melting and cooling; in this context, the formation of amorphous structure is confirmed by the XRD technique. X-ray powder Diffraction (XRD) is an analytical technique primarily used for phase identification of a crystalline material, in which the crystalline structure causes a beam of incident X-rays to diffract into many specific directions. It works best for materials that are crystalline or partially crystalline (i.e., that have periodic structural order) but is also used to study non-crystalline materials FIG. 3.

[2] = Glass transition temperature (Tg) of meltable drug in amorphous form by Differential Scanning calorimetry (DSC)
Source text: (§1) The meltable active pharmaceutical ingredient forms a stable amorphous form following melting and cooling; in this context, the term “stable” as applied to the amorphous form means that the thermodynamic tendency of the active pharmaceutical ingredient to crystallize over one year is resisted. […] In this context, minimal degradation means that at least 90% of the active pharmaceutical ingredient retains its therapeutic activity following melting and cooling. […] Also, analysis of ^1H and ^13C NMR confirmed the chemical structure of ITZ, with molecular formula C35H38Cl2N8O4. […] Which indicating the chemical stability of both ITZ melts (FIG. 5). Differential Scanning calorimetry (DSC) may be employed to determine the glass transition temperature (Tg) of a meltable drug in amorphous form DSC utilizes a heat flow technique and compares the amount of heat supplied to the test sample and a similarly heated “reference” to determine transition points. Tg is typically calculated by using a half-height technique in the transition region FIG. 6.

[3] = Chemical stability before and after melting for microneedle fabrication (LC-MS, 1H and 13C NMR)
Source text: as §1

SMILES | GLASSY AND AMORPHOPUS FORM [1] | GLASS TRANSITION TEMP (TG ° C.) [2] [°C] | chemical stability of melts (1H and 13C NMR difference versus unmelted ITZ) [3] | stability before and after melting (LC-MS fragmentation pattern) ([3]; LC-MS, ITZ vs ITZ melt)
CCCCC(=O)O[C@]1(C(=O)CO)[C@@H](C)C[C@H]2[C@@H]3CCC4=CC(=O)C=C[C@]4(C)[C@@]3(F)[C@@H](O)C[C@@]21C [Betamethazone valerate] | YES | 54 |  | 
Clc1ccccc1C(c1ccccc1)(c1ccccc1)n1ccnc1 [Clotrimazole] | YES | 32 |  | 
O=C(O)Cc1ccccc1Nc1c(Cl)cccc1Cl [Diclofenac] | YES | 53 |  | 
OC(Cn1cncn1)(Cn1cncn1)c1ccc(F)cc1F [Fluconazole] | YES | 32 |  | 
CCC(C)n1ncn(-c2ccc(N3CCN(c4ccc(OCC5COC(Cn6cncn6)(c6ccc(Cl)cc6Cl)O5)cc4)CC3)cc2)c1=O (centres unmarked) [ITZ melt1] |  |  | No difference | 
CCC(C)n1ncn(-c2ccc(N3CCN(c4ccc(OCC5COC(Cn6cncn6)(c6ccc(Cl)cc6Cl)O5)cc4)CC3)cc2)c1=O (centres unmarked) [ITZ melt2] |  |  | No difference | 
COc1ccc2c(c1)c(CC(=O)O)c(C)n2C(=O)c1ccc(Cl)cc1 [Indomethacin] | YES | 45 |  | 
CCC(C)n1ncn(-c2ccc(N3CCN(c4ccc(OCC5COC(Cn6cncn6)(c6ccc(Cl)cc6Cl)O5)cc4)CC3)cc2)c1=O (centres unmarked) [Itraconazole] |  |  |  | high stability
CC(=O)N1CCN(c2ccc(OCC3COC(Cn4ccnc4)(c4ccc(Cl)cc4Cl)O3)cc2)CC1 (centres unmarked) [Ketoconazole] | YES | 46 |  | 
CC1=C(CC(=O)O)c2cc(F)ccc2/C1=C\c1ccc([S+](C)[O-])cc1 (centres unmarked) [Sulindac] | YES | 75 |  | 
